In patent publication US8007833B2, “Method of reducing infections and/or air embolisms associated with vascular access procedures” (Biolife, L.L.C., priority 2009, dated 2011):

Legend:
Assay in all cases: Biofilm Eradication with Calgary Biofilm Device
Type in all cases: cell-based
S. aureus = system: S. aureus
From the text: (§1) VI. Biofilm Eradication with Calgary Biofilm Device [Innovotech]
(§2) Minimum Inhibitory Concentration (MIC) Breakpoints

S. epidermidis = system: S. epidermidis
From the text: as §1, §2

P. aeruginosa = system: P. aeruginosa
From the text: as §1, §2
(§3) Minimum Bactericidal Concentration (MBC) Breakpoints
(§4) Minimum Biofilm Eradication Concentration (MBEC) Breakpoints
(§5) Minimum Concentration that Kills Biofilms with Log R of 3 or Higher

MRS. aureus = system: MRS. aureus
From the text: as §1, §3, §4, §5

MRS. epidermidis = system: MRS. epidermidis
From the text: as §1, §3, §4, §5

For Gentamicin, the “Minimum Inhibitory Concentration (MIC) Breakpoints” value (shortened to “Minimum Inhibitory Concentration”) (S. aureus) was under 8 µg/mL, the “Minimum Inhibitory Concentration” value (S. epidermidis) was under 8 µg/mL and the “Minimum Bactericidal Concentration (MBC) Breakpoints” value (from here on “Minimum Bactericidal Concentration”) (P. aeruginosa; P. aeruginosa) was under 8 µg/mL. The “Minimum Inhibitory Concentration” value (P. aeruginosa; P. aeruginosa) was under 8 µg/mL, the “Minimum Biofilm Eradication Concentration (MBEC) Breakpoints” value (P. aeruginosa; P. aeruginosa biofilm) was over 1024 µg/mL and the “Minimum Concentration that Kills Biofilms with Log R of 3 or Higher” value (P. aeruginosa; P. aeruginosa biofilm) was 64 ug/mL. The “Log 10 Reduction” value (P. aeruginosa; P. aeruginosa biofilm, at 256 ug/mL, 128 ug/mL and 64 ug/mL) was “greater than three”, the “Minimum Bactericidal Concentration” value (MRS. aureus; MRS. aureus) was under 16 µg/mL and the “Minimum Biofilm Eradication Concentration (MBEC) Breakpoints” value (MRS. aureus; MRS. aureus biofilm) was 1024 µg/mL. The “Minimum Concentration that Kills Biofilms with Log R of 3 or Higher” value (MRS. aureus; MRS. aureus biofilm) was 1024 ug/mL, the “Log 10 Reduction” value (MRS. aureus; MRS. aureus biofilm, at only 1024 ug/mL) was “greater than 3” and the “Minimum Bactericidal Concentration” value (MRS. epidermidis; MRS. epidermidis) was under 8 µg/mL. The “Minimum Biofilm Eradication Concentration (MBEC) Breakpoints” value (MRS. epidermidis; MRS. epidermidis biofilm) was over 1024 µg/mL, the “Minimum Concentration that Kills Biofilms with Log R of 3 or Higher” value (MRS. epidermidis; MRS. epidermidis biofilm) was over 1024 ug/mL and the “Log 10 Reduction” value (MRS. epidermidis; MRS. epidermidis biofilm, at any concentration) was at most 3.
